Measured values as given in patent publication US9593118B2, “Xanthine-substituted alkynyl carbamates/reverse carbamates as A2B antagonists” (Lewis and Clark Pharmaceuticals, Inc., priority 2015, dated 2017).

Target: T1, A2B adenosine receptor (Homo sapiens, UniProt P29275)
T1 construct: An endogenous A2B adenosine receptor coupled to cyclic AMP generation in human embryonic kidney (HEK-293) cells; endogenous in cells
T1 sequence (P29275 1-332): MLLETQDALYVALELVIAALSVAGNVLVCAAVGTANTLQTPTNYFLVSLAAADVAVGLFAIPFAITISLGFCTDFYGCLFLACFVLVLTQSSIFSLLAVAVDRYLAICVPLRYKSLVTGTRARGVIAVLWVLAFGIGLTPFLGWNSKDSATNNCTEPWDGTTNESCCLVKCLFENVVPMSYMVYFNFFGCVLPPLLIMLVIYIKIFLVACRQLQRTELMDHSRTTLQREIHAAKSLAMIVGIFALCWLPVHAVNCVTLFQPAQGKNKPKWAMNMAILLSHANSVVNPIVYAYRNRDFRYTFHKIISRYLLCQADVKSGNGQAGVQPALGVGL
Experiment: A2B antagonist cAMP assay (inhibition of the NECA response, HTRF)
Type: cell-based
Settings: test compound at 1×10^−7M; percent inhibition of the control response to 1 μM NECA (cAMP)
Method: Representative compounds of the present invention have been tested for their activity as A2B antagonists and shown to be active. These values were obtained by using the following methodology.
The cells are suspended in HBSS buffer (Invitrogen) complemented with 20 mM HEPES (pH 7.4), then distributed in microplates at a density of 5×10^3 cells/well and preincubated for 5 min at room temperature in the presence of HBSS (basal control), the test compound or the reference antagonist. Thereafter, the reference agonist NECA is added at a final concentration of 1 μM. […] Following 10 min incubation at 37° C., the cells are lysed and the fluorescence acceptor (D2-labeled cAMP) and fluorescence donor (anti-cAMP antibody labeled with europium cryptate) are added. After 60 min at room temperature, the fluorescence transfer is measured at λex=337 nm and λem=620 and 665 nm using a microplate reader (Rubystar, BMG). The cAMP concentration is determined by dividing the signal measured at 665 nm by that measured at 620 nm (ratio). The results are expressed as a percent inhibition of the control response to 1 μM NECA. The standard reference antagonist is XAC, which is tested in each experiment at several concentrations to generate a concentration-response curve from which its IC50 value is calculated.
Reference: Cooper, J., Hill, S. J., and Alexander, S. P. H. (1997), An endogenous A2B adenosine receptor coupled to cyclic AMP generation in human embryonic kidney (HEK-293) cells, Brit. J. Pharmacol., 122: 546.

SMILES | inhibition at 0.1 µM [%]
CN(CC#Cc1nc2c([nH]1)c(=O)n(C1CC1)c(=O)n2C1CC1)C(=O)Oc1ccc(F)cc1 [Example 1, 1,3-Dicyclopropyl-8-(3-(methyl((4-fluorophenoxy)carbonyl)amino)prop-1-yn-1-yl)xanthine] | > 20
CN(CC#Cc1nc2c([nH]1)c(=O)n(C1CC1)c(=O)n2C1CC1)C(=O)Oc1ccccc1 [Example 3, 1,3-Dicyclopropyl-8-(3-(methyl(phenoxycarbonyl)amino)prop-1-yn-1-yl)xanthine] | > 5
CN(C(=O)OCC#Cc1nc2c([nH]1)c(=O)n(C1CC1)c(=O)n2C1CC1)c1ccccc1 [Example 7, 1,3-Dicyclopropyl-8-(3-((methyl(phenyl)carbamoyl)oxy)prop-1-yn-1-yl)xanthine] | > 5
CCCn1c(=O)n(C2CC2)c(=O)c2[nH]c(C#CCN(C)C(=O)Oc3ccc(F)cc3)nc21 [Example 2, 1-Cyclopropyl-3-propyl-8-(3-(methyl((4-fluorophenoxy)carbonyl)amino)prop-1-yn-1-yl)xanthine] | > 20
CN(CC#Cc1nc2c([nH]1)c(=O)n(C1CC1)c(=O)n2C1CC1)C(=O)Oc1ccccc1Cl [Example 6, 8-(3-(((2-Chlorophenoxy)carbonyl)(methyl)amino)prop-1-yn-1-yl)-1,3-dicyclopropylxanthine] | > 5
CN(C(=O)OCC#Cc1nc2c([nH]1)c(=O)n(C1CC1)c(=O)n2C1CC1)c1ccc(Cl)cc1 [Example 8, 8-(3-(((4-Chlorophenyl)(methyl)carbamoyl)oxy)prop-1-yn-1-yl)-1,3-dicyclopropylxanthine] | > 20
CN(CC#Cc1nc2c([nH]1)c(=O)n(C1CC1)c(=O)n2C1CC1)C(=O)Oc1cccc(C(F)(F)F)c1 [Example 4, 1,3-Dicyclopropyl-8-(3-(methyl((3-(trifluoromethyl)phenoxy)carbonyl)-amino)prop-1-yn-1-yl)xanthine] | > 5
COc1ccccc1OC(=O)N(C)CC#Cc1nc2c([nH]1)c(=O)n(C1CC1)c(=O)n2C1CC1 [Example 5, 1,3-Dicyclopropyl-8-(3-(methyl((2-methoxyphenoxy)carbonyl)amino)prop-1-yn-1-yl)xanthine] | > 5
